Test results from patent publication US12162890B2 (Novartis AG, priority 2015, dated 2024).

Molecular target: HEK293 cells with stable expression of the GRIN1 gene and tetracycline-inducible expression of the GRIN2B gene (NMDA receptor, NR2B) (Homo sapiens, UniProt Q13224)
Experiment: Fluo-8 Ca2+ flux assay: reversal of Ro 25-6981-mediated suppression of the Ca2+ response to co-agonist (glutamate/glycine); note: test concentration or dose not given here
Assay type: cell-based
Conditions: reversal of the Ro 25-6981 suppression of the Ca2+ response to co-agonist (glutamate/glycine)

HEK293 cells with stable expression of the GRIN1 gene and tetracycline-inducible expression of the GRIN2B gene (NMDA receptor, NR2B), sequence (Q13224 27-1484, other chains not shown): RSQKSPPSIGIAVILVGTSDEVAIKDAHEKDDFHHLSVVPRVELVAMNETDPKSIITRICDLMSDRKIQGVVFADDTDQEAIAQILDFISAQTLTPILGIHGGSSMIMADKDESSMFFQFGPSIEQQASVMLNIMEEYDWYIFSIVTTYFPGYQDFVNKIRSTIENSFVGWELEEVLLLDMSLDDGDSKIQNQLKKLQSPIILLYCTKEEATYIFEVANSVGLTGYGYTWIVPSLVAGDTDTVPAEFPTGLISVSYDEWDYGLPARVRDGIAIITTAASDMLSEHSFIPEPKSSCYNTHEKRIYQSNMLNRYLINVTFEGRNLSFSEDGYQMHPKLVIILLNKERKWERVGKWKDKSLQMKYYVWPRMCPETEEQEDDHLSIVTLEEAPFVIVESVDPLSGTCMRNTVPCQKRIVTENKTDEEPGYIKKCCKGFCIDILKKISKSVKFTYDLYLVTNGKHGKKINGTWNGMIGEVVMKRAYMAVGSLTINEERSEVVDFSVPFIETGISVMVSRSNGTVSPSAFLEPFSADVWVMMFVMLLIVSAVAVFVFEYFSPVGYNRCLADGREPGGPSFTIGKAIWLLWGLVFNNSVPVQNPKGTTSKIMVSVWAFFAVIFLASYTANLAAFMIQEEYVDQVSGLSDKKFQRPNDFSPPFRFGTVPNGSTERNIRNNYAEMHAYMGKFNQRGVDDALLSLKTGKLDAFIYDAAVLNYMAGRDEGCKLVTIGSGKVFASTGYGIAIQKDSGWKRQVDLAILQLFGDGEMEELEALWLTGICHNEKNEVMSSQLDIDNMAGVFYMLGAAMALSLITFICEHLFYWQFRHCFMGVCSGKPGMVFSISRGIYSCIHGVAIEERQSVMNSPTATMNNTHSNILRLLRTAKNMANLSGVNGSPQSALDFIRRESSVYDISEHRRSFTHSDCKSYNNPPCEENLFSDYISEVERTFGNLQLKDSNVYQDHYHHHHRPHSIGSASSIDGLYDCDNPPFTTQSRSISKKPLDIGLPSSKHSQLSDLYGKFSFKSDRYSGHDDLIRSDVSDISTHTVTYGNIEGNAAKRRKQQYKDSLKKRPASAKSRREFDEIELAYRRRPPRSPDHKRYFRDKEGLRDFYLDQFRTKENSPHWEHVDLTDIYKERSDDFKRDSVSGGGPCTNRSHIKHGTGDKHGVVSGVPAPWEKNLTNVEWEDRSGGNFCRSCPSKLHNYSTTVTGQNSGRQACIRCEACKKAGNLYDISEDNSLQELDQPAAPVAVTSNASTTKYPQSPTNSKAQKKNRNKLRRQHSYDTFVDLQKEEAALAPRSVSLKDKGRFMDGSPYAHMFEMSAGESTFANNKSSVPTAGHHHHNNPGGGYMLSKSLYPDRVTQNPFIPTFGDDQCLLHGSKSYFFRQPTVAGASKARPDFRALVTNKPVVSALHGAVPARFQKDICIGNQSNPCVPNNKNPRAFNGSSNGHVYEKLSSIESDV

Response Recovered (%)	SMILES
36%	O=C(Cn1cnc2[nH]cc(-c3ccc(Cl)cc3)c2c1=O)N1CC(F)(F)C1 [Example 154, 5-(4-chlorophenyl)-3-(2-(3,3-difluoroazetidin-1-yl)-2-oxoethyl)-3H-pyrrolo[2,3-d]pyrimidin-4(7H)-one]
2%	O=C(Cn1nnc2scc(-c3ccc(Cl)c(C(F)(F)F)c3)c2c1=O)N1CCCC1C(F)(F)F (centres unmarked) [Example 334, 5-(4-chloro-3-(trifluoromethyl)phenyl)-3-(2-oxo-2-(2-(trifluoromethyl)pyrrolidin-1-yl)ethyl)thieno[2,3-d][1,2,3]triazin-4(3H)-one]
34%	CC1(F)CN(C(=O)Cn2ccn3cnc(-c4ccc(F)c(Cl)c4)c3c2=O)C1 [Example 445, 1-(3-chloro-4-fluorophenyl)-7-(2-(3-fluoro-3-methylazetidin-1-yl)-2-oxoethyl)imidazo[1,5-a]pyrazin-8(7H)-one]
2%	O=C(Cn1ccc2ccc(-c3ccc(Cl)c(Cl)c3)cc2c1=O)N1CCC(F)C1 (centres unmarked) [Example 315, 7-(3,4-dichlorophenyl)-2-(2-(3-fluoropyrrolidin-1-yl)-2-oxoethyl)isoquinolin-1(2H)-one]
20%	COCc1cn(CC(=O)N2CCC(F)C2)c(=O)c2c(-c3ccc(Cl)c(Cl)c3)csc12 (centres unmarked) [Example 132, 3-(3,4-dichlorophenyl)-5-(2-(3-fluoropyrrolidin-1-yl)-2-oxoethyl)-7-(methoxymethyl) thieno[3,2-c]pyridin-4(5H)-one]
140%	CC1(F)CN(C(=O)Cn2ccn3ccc(-c4ccc(F)c(Cl)c4)c3c2=O)C1 [Example 397, 8-(3-chloro-4-fluorophenyl)-2-(2-(3-fluoro-3-methylazetidin-1-yl)-2-oxoethyl)pyrrolo[1,2-a]pyrazin-1(2H)-one]
1%	O=C(Cn1cnc2onc(-c3ccc(Cl)cc3)c2c1=O)N1CCCC1 [Example 383, 3-(4-chlorophenyl)-5-(2-oxo-2-(pyrrolidin-1-yl)ethyl)isoxazolo[5,4-d]pyrimidin-4(5H)-one]
120%	CC1(F)CN(C(=O)Cn2ccn3c(C4CC4)nc(-c4ccc(Cl)c(Cl)c4)c3c2=O)C1 [Example 435, 3-cyclopropyl-1-(3,4-dichlorophenyl)-7-(2-(3-fluoro-3-methylazetidin-1-yl)-2-oxoethyl)imidazo[1,5-a]pyrazin-8(7H)-one]
3%	O=C(Cn1cnc2csc(-c3ccc(Cl)cc3)c2c1=O)N1CCC1 [Example 349, 3-(2-(azetidin-1-yl)-2-oxoethyl)-5-(4-chlorophenyl)thieno[3,4-d]pyrimidin-4(3H)-one]
150%	CC1(F)CN(C(=O)Cn2ccc3c(c(-c4ccc(F)c(Cl)c4)cn3CCF)c2=O)C1 [Example 281, 3-(3-chloro-4-fluorophenyl)-5-(2-(3-fluoro-3-methylazetidin-1-yl)-2-oxoethyl)-1-(2-fluoroethyl)-1H-pyrrolo[3,2-c]pyridin-4(5H)-one]
53%	O=C(Cn1cc(CN2CC(F)C2)c2scc(-c3ccc(F)c(Cl)c3)c2c1=O)N1CCC(F)C1 (centres unmarked) [Example 125, 3-(3-chloro-4-fluorophenyl)-7-((3-fluoroazetidin-1-yl)methyl)-5-(2-(3-fluoropyrrolidin-1-yl)-2-oxoethyl)thieno[3,2-c]pyridin-4(5H)-one]
101%	O=C(Cn1ccc2[nH]cc(-c3ccc(F)c(C(F)(F)F)c3)c2c1=O)N1CC(F)(F)C1 [Example 216, 5-(2-(3,3-difluoroazetidin-1-yl)-2-oxoethyl)-3-(4-fluoro-3-(trifluoromethyl)phenyl)-1H-pyrrolo[3,2-c]pyridin-4(5H)-one]
0%	O=C(Cn1cnc2csc(-c3ccc(Cl)cc3)c2c1=O)NC1CC1 [Example 346, 2-(5-(4-chlorophenyl)-4-oxothieno[3,4-d]pyrimidin-3(4H)-yl)-N-cyclopropylacetamide]
8.3%	O=C(Cn1cc(N2CCC2)c2scc(-c3ccc(F)c(C(F)(F)F)c3)c2c1=O)N1CCC(F)C1 (centres unmarked) [Example 115, 7-(azetidin-1-yl)-3-[4-fluoro-3-(trifluoromethyl)phenyl]-5-[2-(3-fluoropyrrolidin-1-yl)-2-oxoethyl]-4H,5H-thieno[3,2-c]pyridin-4-one]
77%	O=C(Cn1cc(CN2CCC2)c2scc(-c3ccc(F)c(C(F)(F)F)c3)c2c1=O)N1CCC(F)C1 (centres unmarked) [Example 118, 7-(azetidin-1-ylmethyl)-3-(4-fluoro-3-(trifluoromethyl)phenyl)-5-(2-(3-fluoropyrrolidin-1-yl)-2-oxoethyl)thieno[3,2-c]pyridin-4(5H)-one]
140%	CC1(F)CN(C(=O)Cn2ccc3c(c(-c4ccc(F)c(Cl)c4)cn3C3CC3)c2=O)C1 [Example 285, 3-(3-chloro-4-fluorophenyl)-1-cyclopropyl-5-(2-(3-fluoro-3-methylazetidin-1-yl)-2-oxoethyl)-1H-pyrrolo[3,2-c]pyridin-4(5H)-one]

Response Recovered (%)	SMILES
79%	O=C(Cn1ccc2scc(-c3ccc(Cl)c(C(F)(F)F)c3)c2c1=O)N1CC(F)C1 [Example 34, 3-(4-chloro-3-(trifluoromethyl)phen-yl)-5-(2-(3-fluoroazetidin-1-yl)-2-oxoethyl)thieno[3,2-c]pyridin-4(5H)-one]
4.7%	CC1(NC(=O)OC(C)(C)C)CN(C(=O)Cn2ccc3scc(-c4ccc(F)c(Cl)c4)c3c2=O)C1 [Example 74, tert-butyl (1-(2-(3-(3-chloro-4-fluorophenyl)-4-oxothieno[3,2-c]pyridin-5(4H)-yl)acetyl)-3-methylazetidin-3-yl)carbamate]
1%	CC1(N)CN(C(=O)Cn2ccc3scc(-c4ccc(F)c(Cl)c4)c3c2=O)C1 [Example 95]
15%	O=C(Cn1ncc2scc(-c3ccc(Cl)c(Cl)c3)c2c1=O)N1CCCC1 [Example 338, 3-(3,4-dichlorophenyl)-5-(2-oxo-2-(pyrrolidin-1-yl)ethyl)thieno[2,3-d]pyridazin-4(5H)-one]
10%	O=C(Cn1cnc2[nH]cc(-c3ccc(Cl)cc3)c2c1=O)N1CCCC1C(F)(F)F (centres unmarked) [Example 152, 5-(4-chlorophenyl)-3-(2-oxo-2-(2-(trifluoromethyl)pyrrolidin-1-yl)ethyl)-3H-pyrrolo[2,3-d]pyrimidin-4(7H)-one]
79%	CC1(F)CN(C(=O)Cn2ccn3c(C4CC4)nc(-c4ccc(F)c(C(F)(F)F)c4)c3c2=O)C1 [Example 438, 3-cyclopropyl-1-(4-fluoro-3-(trifluoromethyl)phenyl)-7-(2-(3-fluoro-3-methylazetidin-1-yl)-2-oxoethyl)imidazo[1,5-a]pyrazin-8(7H)-one]
83%	O=C(Cn1ccc2scc(-c3ccc(Cl)c(C(F)(F)F)c3)c2c1=O)N1CCCC1 [Example 1, 3-(4-chloro-3-(trifluoromethyl)phenyl)-5-(2-oxo-2-(pyrrolidin-1-yl)ethyl)thieno[3,2-c]pyridin-4(5H)-one]
120%	Cc1cc(-c2nc(C3CC3)n3ccn(CC(=O)N4CC(C)(F)C4)c(=O)c23)ccc1Cl [Example 443, 1-(4-chloro-3-methylphenyl)-3-cyclopropyl-7-(2-(3-fluoro-3-methylazetidin-1-yl)-2-oxoethyl)imidazo[1,5-a]pyrazin-8(7H)-one]
95%	Cn1cnc(-n2cc(-c3ccc(F)c(C(F)(F)F)c3)c3c(=O)n(CC(=O)N4CCC(F)C4)ccc32)n1 (centres unmarked) [Example 266, 3-(4-fluoro-3-(trifluoromethyl)phenyl)-5-(2-(3-fluoropyrrolidin-1-yl)-2-oxoethyl)-1-(1-methyl-1H-1,2,4-triazol-3-yl)-1H-pyrrolo[3,2-c]pyridin-4(5H)-one]
18%	O=C(Cn1ccc2scc(-c3cnc(F)c(Cl)c3)c2c1=O)N1CC(F)C(F)C1 (centres unmarked) [Example 38, 3-(5-chloro-6-fluoropyrridin-3-yl)-5-(2-(3,4-difluoropyrrolidin-1-yl)-2-oxoethyl)thieno[3,2-c]pyridin-4(5H)-one]
30%	CCN(CC)Cc1cn(CC(=O)N2CCC(F)C2)c(=O)c2c(-c3ccc(F)c(C(F)(F)F)c3)csc12 (centres unmarked) [Example 117, 7-((diethylamino)methyl)-3-(4-fluoro-3-(trifluoromethyl)phenyl)-5-(2-(3-fluoropyrrolidin-1-yl)-2-oxoethyl)thieno[3,2-c]pyridin-4(5H)-one 2,2,2-trifluoroacetate]
0%	O=C(Cn1cnc2csc(-c3ccc(Cl)cc3)c2c1=O)N1CCCCC1 [Example 350, 5-(4-chlorophenyl)-3-(2-oxo-2-(piperidin-1-yl)ethyl)thieno[3,4-d]pyrimidin-4(3H)-one]
73%	CC1(F)CN(C(=O)Cn2ccc3c(c(-c4ccc(F)c(Cl)c4)cn3CC(F)(F)F)c2=O)C1 [Example 280, 3-(3-chloro-4-fluorophenyl)-5-(2-(3-fluoro-3-methylazetidin-1-yl)-2-oxoethyl)-1-(2,2,2-trifluoroethyl)-1H-pyrrolo[3,2-c]pyridin-4(5H)-one]
140%	Cc1cc(-c2cn(C3CC3)c3ccn(CC(=O)N4CC(C)(F)C4)c(=O)c23)ccc1Cl [Example 292, 3-(4-chloro-3-methylphenyl)-1-cyclopropyl-5-(2-(3-fluoro-3-methylazetidin-1-yl)-2-oxoethyl)-1,5-dihydro-4H-pyrrolo[3,2-c]pyridin-4-one]
140%	O=C(Cn1ccc2scc(-c3ccc(F)c(C(F)(F)F)c3)c2c1=O)N1CC(F)(CF)C1 [Example 83, 5-(2-(3-fluoro-3-(fluoromethyl)azetidin-1-yl)-2-oxoethyl)-3-(4-fluoro-3-(trifluoromethyl)phen-yl)thieno[3,2-c]pyridin-4(5H)-one]

SMILES	Response Recovered (%)
Cc1nc(-c2ccc(F)c(Cl)c2)c2c(=O)n(CC(=O)N3CC(C)(F)C3)ccn12 [Example 426, 1-(3-chloro-4-fluorophenyl)-7-(2-(3-fluoro-3-methylazetidin-1-yl)-2-oxoethyl)-3-methylimidazo[1,5-a]pyrazin-8(7H)-one]	30%
